From publication PMC6678253, “The 1,3,5-Triazine Derivatives as Innovative Chemical Family of 5-HT6 Serotonin Receptor Agents with Therapeutic Perspectives for Cognitive Impairment” (International Journal of Molecular Sciences, 2019)
Read-outs that look alike come from different tables or passages of the source.

What was measured:
5-HT6 = target: 5-HT6; parameters: method as in PMID 28441580, PMID 30530073, PMID 31229876; details: human receptor stably expressed in HEK-293; determined previously; read-out: Ki 5-HT6 [3H]-LSD; cited from earlier work
P-glycoprotein (Pgp) = P-glycoprotein (Pgp) (Homo sapiens, UniProt P08183); assay: Luminescent Pgp-Glo Assay System; details: 100 μM, 40 min, 37 °C; for Pgp basal activity: > 100% = substrate, increase statistically insignificant
Protocol: Moreover, the luminescence Pgp-Glo™ Assay was used in order to determine their influence on P-glycoprotein (Pgp) activity, the main efflux pump in the transport across blood–brain barrier (BBB) and the intestinal epithelium.
The luminescent Pgp-Glo™ Assay System used for determination of 5HT6R ligands’ influence on P-glycoprotein activity was purchased from Promega (Madison, WI, USA). […] The luminescence signal was measured by microplate reader EnSpire PerkinElmer (Waltham, MA, USA).

[1] = Metabolic stability in human liver microsomes (HLMs); details: for Clint: HLMs 1 mg/mL, 50 µM compound, Clint ≤ 8.6 = low clearance; for half-life at 50 µM: human, human liver microsomes
Protocol: The t1/2 values and intrinsic clearances (Clint) were calculated using IS by protocols and formulas proposed by Obach [30].

CYP2D6 = target: T1, CYP2D6 (Homo sapiens, UniProt P10635); assay: CYP2D6 P450-Glo assay; assay type: in vitro ADME; details: for CYP2D6 activity (inhibition): at 25 µM
T1 construct: purchased Promega (Madison, WI, USA)
From the text: (§1) The potential risk of drug-drug interactions (DDI) were examined by luminescence-based CYP3A4 and CYP2D6 P450-Glo™ assays (Promega®). These two CYP isoforms are responsible for metabolism of approximately half of all marketed drugs, and an influence on their activity may be a source of DDI danger. […] The luminescent CYP3A4 P450-Glo™ and CYP2D6 P450-Glo™ Promega® (Madison, WI, USA) were used for investigation of potential drug-drug interactions. All assays and protocols were described before.

5-HT2A = target: T2, 5-HT2A (Homo sapiens, UniProt P28223); assay: Radioligand binding assay, 5-HT2A ([3H]-ketanserin displacement); details: human receptor stably expressed in HEK-293
T2 construct: expressed in transfected cells; host or cells: HEK-293

[2] = Parallel artificial membrane permeability assay (PAMPA); assay type: in vitro ADME; details: PBS pH 7.4, 5 h, room temperature, breakpoint for permeable compounds Pe ≥ 1.5 × 10^−6 cm/s, read-out: Pe (permeability coefficient) ± SD
[3] = Vogel conflict drinking test; details: rats
Protocol: It was consisted of polycarbonate cages (dimensions 26.5 cm × 15 cm × 42 cm), equipped with a grid floor made from stainless steel bars and drinking bottles containing tap water. Experimental chambers were connected to PC software by control chassis and electric shocks’ generator. On the first day of the experiment, the rats were adapted to the test chambers and drink water from the bottle spout for 10 min. Afterwards, the rats were returned to their home cages and were given 30 min free access to water followed by a 24-h water deprivation period. The adaptation session and water deprivation protocols were repeated on the second day of the experiment. On the third day the rats were placed again in the test chambers 60 min after investigated and reference compounds administration and were given free access to the drinking tube. Recording data started immediately after the first lick and rats were punished with an electric shock (0.5 mA, lasting 1 s) delivered to the metal drinking tube every 20 licks. The number of licks and the number of shocks received during a 5-min experimental session were recorded automatically.

[4] = tested on: human embryonic kidney HEK-293 cell line; assay: Cytotoxicity, MTS assay in HEK-293
Protocol: (§2) The cells’ viability was determined by CellTiter 96® AQueous Non-Radioactive Cell Proliferation Assay (MTS), which was purchased from Promega (Madison, WI, USA). The absorbance was measured using a microplate reader EnSpire (PerkinElmer, Waltham, MA USA) at 490 nm. All compounds were tested in quadruplicate. For ATP-level measurement the cells were growth in similar way as in cytotoxicity assays. The CellTiter-Glo® Luminescent Cell Viability Assay and protocol was provided by Promega (Madison, WI, USA). The luminescence was measured after 2 hours-long cells’ exposition on tested compounds and the positive control CCCP by a microplate reader EnSpire (PerkinElmer, Waltham, MA USA) at luminescence mode. All compounds were tested in triplicate.

5-HT7 [5] = target: T3, 5-HT7 (Homo sapiens, UniProt P34969); parameters: method as in PMID 28441580, PMID 30530073, PMID 31229876; details: human receptor stably expressed in HEK-293; determined previously; read-out: Ki 5-HT7 [3H]-5-CT; cited from earlier work
T3 construct: expressed in transfected cells; host or cells: HEK-293

5-HT1A [6] = target: T4, 5-HT1A (Homo sapiens, UniProt P08908); parameters: method as in PMID 28441580, PMID 30530073, PMID 31229876; details: human receptor stably expressed in HEK-293; determined previously; read-out: Ki 5-HT1A [3H]-8-OH-DPAT; cited from earlier work
T4 construct: expressed in transfected cells; host or cells: HEK-293
T4 sequence (P08908 1-422): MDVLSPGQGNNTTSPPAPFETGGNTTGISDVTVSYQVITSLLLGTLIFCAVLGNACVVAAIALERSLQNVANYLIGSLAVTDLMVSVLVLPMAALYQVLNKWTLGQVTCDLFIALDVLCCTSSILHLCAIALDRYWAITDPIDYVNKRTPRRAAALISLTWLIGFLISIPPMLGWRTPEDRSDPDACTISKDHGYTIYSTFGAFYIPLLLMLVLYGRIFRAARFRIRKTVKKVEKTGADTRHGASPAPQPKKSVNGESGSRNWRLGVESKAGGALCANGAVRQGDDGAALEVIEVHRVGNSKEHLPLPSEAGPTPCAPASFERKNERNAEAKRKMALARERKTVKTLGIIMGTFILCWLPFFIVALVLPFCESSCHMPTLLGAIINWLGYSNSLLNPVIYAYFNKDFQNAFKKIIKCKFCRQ

D2L [7] = target: T5, D2L (Homo sapiens, UniProt P14416); parameters: method as in PMID 28441580, PMID 30530073, PMID 31229876; details: human receptor stably expressed in HEK-293; determined previously; read-out: Ki D2L [3H]-Raclopride; cited from earlier work
T5 construct: expressed in transfected cells; host or cells: HEK-293

hepatoma HepG2 cell line [8] = assay: ATP level in HepG2 (CellTiter-Glo); details: 2 h exposure, 10 µM
Protocol: as §2

5-HT1A [9] = target: T4, 5-HT1A; assay: Radioligand binding assay, 5-HT1A ([3H]-8-OH-DPAT displacement); details: human receptor stably expressed in HEK-293
hepatoma HepG2 cell line [10] = assay: Hepatotoxicity, MTS assay in HepG2; details: 72 h; 100 µM
Protocol: as §2

CYP3A4 = target: T6, CYP3A4 (Homo sapiens, UniProt P08684); assay: CYP3A4 P450-Glo assay; assay type: in vitro ADME; details: 0.01-25 μM; effect of 4 at 10 and 25 µM
T6 construct: purchased Promega (Madison, WI, USA)
From the text: as §1

5-HT7 [11] = target: T3, 5-HT7; assay: Radioligand binding assay, 5-HT7 ([3H]-5-CT displacement); details: human receptor stably expressed in HEK-293
D2L [12] = target: T5, D2L; assay: Radioligand binding assay, D2L ([3H]-raclopride displacement); details: human receptor stably expressed in HEK-293
[13] = Novel object recognition test (NORT), scopolamine-induced memory impairment; assay type: in vivo, rat; details: rats, 1 mg/kg; ANOVA NS
From the text: Taking into account the ability of various 5-HT6R antagonists to improve cognitive deficits, the NORT assay was used to study the influence of the investigated compounds on visual episodic memory. This test is based on the spontaneous exploration of novel and familiar objects. The administration of scopolamine reduces an ability to discriminate a novel object from a familiar one, and any compounds that have a protective effect against this deficit are regarded as potentially useful for treating cognitive deficits that are characteristic for Alzheimer’s disease and other dementia connected disorders.
Five days before the experiment, the rats were transferred to the laboratory, labeled and, thereafter, left to acclimate to the new environment. The animals were handling every five days before experiments to minimize the stress reaction. The protocol was adapted from the original work. The test session comprising of two trials separated by an inter-trial interval (ITI) of 1 h was carried out on the next day. […]
The animals explored the objects by looking, licking, sniffing or touching the object but not when leaning against, standing or sitting on the object. […] Exploration time of the objects was measured by blind experimenter. Based on exploration time (E) of two objects during T2, discrimination index (DI) was calculated according to the formula: DI = (EB − EA)/(EA + […]). […]

[14] = 72 h, only at 100 µM, 1 p < 0.001, 2 p < 0.05

T2 sequence (P28223 whole entry): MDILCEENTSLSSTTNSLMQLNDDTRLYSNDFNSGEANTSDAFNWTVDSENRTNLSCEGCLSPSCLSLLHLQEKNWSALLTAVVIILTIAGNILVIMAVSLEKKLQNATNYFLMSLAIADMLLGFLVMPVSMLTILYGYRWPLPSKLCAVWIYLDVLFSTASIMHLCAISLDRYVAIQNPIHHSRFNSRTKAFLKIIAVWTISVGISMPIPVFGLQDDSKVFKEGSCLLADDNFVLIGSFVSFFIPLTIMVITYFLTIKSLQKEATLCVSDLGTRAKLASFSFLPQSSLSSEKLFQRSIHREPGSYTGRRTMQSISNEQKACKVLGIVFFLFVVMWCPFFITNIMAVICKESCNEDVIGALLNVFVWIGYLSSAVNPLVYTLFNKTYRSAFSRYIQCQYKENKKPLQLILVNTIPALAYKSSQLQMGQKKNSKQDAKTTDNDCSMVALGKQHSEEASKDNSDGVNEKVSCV
T3 sequence (P34969 1-432): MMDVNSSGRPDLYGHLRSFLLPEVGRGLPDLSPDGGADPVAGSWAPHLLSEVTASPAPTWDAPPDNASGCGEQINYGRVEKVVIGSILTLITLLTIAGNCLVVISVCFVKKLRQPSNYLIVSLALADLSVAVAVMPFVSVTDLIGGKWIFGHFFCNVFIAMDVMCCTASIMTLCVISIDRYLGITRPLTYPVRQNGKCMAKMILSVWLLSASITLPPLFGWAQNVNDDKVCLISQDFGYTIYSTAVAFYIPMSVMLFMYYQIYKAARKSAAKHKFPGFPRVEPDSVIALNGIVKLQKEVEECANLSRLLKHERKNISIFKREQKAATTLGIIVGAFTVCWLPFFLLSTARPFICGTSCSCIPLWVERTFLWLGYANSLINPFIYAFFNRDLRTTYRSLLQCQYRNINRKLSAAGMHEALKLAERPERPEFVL
T1 sequence (P10635 whole entry): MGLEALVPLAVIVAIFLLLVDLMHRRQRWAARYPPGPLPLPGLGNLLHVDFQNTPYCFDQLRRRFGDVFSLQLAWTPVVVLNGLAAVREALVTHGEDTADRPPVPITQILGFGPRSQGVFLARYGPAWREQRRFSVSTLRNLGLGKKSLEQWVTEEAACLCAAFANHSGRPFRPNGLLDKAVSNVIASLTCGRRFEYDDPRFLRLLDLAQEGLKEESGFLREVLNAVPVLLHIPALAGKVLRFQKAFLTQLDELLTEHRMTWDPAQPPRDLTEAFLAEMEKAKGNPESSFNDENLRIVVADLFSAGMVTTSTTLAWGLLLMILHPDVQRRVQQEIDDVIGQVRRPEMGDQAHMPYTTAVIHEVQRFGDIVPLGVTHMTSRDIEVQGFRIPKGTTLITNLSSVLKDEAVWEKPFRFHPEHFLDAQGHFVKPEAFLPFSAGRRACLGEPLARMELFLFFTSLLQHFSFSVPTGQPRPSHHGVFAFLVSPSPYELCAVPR
T5 sequence (P14416 whole entry): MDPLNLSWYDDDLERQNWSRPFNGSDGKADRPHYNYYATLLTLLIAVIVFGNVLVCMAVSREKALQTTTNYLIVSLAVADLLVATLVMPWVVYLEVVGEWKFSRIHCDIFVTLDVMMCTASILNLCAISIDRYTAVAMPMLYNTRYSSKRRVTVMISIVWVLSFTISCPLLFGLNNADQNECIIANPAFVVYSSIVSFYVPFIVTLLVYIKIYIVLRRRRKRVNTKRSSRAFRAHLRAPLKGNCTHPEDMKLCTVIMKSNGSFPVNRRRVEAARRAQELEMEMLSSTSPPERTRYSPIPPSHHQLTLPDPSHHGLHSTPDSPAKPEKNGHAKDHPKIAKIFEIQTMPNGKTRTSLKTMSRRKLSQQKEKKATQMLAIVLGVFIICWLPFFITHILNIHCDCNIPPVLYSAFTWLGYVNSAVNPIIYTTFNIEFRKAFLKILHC
P-glycoprotein (Pgp), sequence (P08183 whole entry): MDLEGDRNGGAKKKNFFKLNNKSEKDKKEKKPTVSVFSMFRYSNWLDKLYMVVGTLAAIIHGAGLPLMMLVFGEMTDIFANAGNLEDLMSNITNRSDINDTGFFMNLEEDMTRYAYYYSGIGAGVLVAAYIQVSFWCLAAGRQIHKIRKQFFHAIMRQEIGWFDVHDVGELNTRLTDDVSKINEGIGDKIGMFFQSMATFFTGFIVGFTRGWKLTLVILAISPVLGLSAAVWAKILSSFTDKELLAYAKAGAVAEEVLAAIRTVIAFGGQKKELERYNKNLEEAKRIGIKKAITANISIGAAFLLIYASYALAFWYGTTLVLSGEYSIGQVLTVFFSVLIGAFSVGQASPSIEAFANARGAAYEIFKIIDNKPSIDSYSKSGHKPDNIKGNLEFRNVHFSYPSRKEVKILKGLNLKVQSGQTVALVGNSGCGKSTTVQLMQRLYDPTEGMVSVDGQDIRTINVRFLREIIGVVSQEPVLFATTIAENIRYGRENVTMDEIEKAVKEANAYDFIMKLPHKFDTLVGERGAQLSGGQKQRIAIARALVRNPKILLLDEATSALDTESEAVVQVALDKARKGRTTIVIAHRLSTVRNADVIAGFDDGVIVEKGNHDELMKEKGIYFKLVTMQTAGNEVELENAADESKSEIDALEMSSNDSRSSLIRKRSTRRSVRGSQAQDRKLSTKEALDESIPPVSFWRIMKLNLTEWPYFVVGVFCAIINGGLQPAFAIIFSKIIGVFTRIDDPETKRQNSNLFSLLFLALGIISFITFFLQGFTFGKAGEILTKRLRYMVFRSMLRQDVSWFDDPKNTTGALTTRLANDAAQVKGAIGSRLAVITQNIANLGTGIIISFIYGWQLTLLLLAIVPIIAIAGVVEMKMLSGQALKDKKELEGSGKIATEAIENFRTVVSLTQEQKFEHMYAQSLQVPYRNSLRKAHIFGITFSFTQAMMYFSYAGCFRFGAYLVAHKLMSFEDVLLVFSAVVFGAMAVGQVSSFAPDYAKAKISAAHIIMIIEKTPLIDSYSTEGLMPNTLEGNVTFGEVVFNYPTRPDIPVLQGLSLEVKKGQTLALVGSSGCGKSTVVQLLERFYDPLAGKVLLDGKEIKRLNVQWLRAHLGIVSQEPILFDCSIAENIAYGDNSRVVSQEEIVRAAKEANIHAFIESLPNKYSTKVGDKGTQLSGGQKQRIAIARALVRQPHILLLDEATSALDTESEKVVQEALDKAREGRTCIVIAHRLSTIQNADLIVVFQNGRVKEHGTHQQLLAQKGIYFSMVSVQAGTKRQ
T6 sequence (P08684 whole entry): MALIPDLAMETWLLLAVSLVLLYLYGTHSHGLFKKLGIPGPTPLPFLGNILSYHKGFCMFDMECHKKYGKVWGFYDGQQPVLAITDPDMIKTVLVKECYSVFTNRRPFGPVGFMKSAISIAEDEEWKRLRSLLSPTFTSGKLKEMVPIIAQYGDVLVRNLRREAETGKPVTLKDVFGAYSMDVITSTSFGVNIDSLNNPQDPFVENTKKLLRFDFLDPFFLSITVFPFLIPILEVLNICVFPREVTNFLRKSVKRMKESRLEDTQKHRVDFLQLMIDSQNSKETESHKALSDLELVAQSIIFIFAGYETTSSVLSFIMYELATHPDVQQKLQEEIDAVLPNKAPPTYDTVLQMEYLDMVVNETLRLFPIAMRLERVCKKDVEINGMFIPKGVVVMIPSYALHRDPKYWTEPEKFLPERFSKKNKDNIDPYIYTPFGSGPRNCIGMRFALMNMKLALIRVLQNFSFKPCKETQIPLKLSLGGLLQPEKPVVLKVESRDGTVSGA

Compound | Ki (5-HT6) [µM] | Pgp basal activity (P-glycoprotein (Pgp)) | Clint [1] [mL/min/kg] | half-life at 50 µM [1] [h] | Ki (5-HT2A) [µM] | Papp at 5 h, 200 µM [2] [×10⁻⁶ cm/s] | anxiolytic-like activity in Vogel conflict drinking test ([3]; i.p. 60 min before test) | other results
CN1CCN(c2nc(N)nc(Cc3c[nH]c4ccccc34)n2)CC1 [Compound 3, 4-((1H-indol-3-yl)methyl)-6-(4-methylpiperazin-1-yl)-1,3,5-triazin-2-amine] | 0.022 | ~ 135% | 2.34 | 4.45 | 1.76 | 17.9 ± 5.76 | anxiolytic-like activity was shown | CYP2D6 activity (inhibition) (CYP2D6): ~ 75 % of the control activity; increase of the number of shocks ([3]; 1 mg/kg i.p., p < 0.05): about 82%
CN1CCN(c2nc(N)nc(Cc3cccc(Cl)c3)n2)CC1 [Compound 1] | 0.028 | ~ 135% | 7.56 | 1.38 | 0.272 | 23.6 ± 2.14 | – | HEK-293 cells viability [4, 14]: significant effect; Ki (5-HT7 [5]): 8.71 µM; Ki (5-HT1A [6]): 4.95 µM; Ki (D2L [7]): 0.838 µM
N#CC(C#N)=NNc1cccc(Cl)c1 [CCCP, carbonyl cyanide 3-chlorophenylhydrazone] | – | – | – | – | – | – | – | ATP level in HepG2 (hepatoma HepG2 cell line [8]): ~ 33 % of control
COc1ccc(S(=O)(=O)Nc2cc(Cl)cc(Cl)c2OC)cc1N1CCNCC1 [SB-399885, N-[3,5-dichloro-2-(methoxy)-phenyl]-4-(methoxy)-1-(piperazinyl)benzenesulfonamide, reference compound] | – | – | – | – | – | – | anxiolytic-like activity was shown | anxiolytic-like activity in Vogel conflict drinking test ([3]; 1 and 3 mg/kg i.p.): exerted anxiolytic-like activity
Cc1cccc(Cc2nc(N)nc(N3CCN(C)CC3)n2)c1 [Compound 2] | – | – | 3.96 | 2.63 | 0.329 | 19.9 ± 2.68 | – | HEK-293 cells viability [4, 14]: significant effect; effect on Pgp basal activity (P-glycoprotein (Pgp); p < 0.001): inhibited significantly; Ki (5-HT7 [5]): 16.2 µM; Ki (5-HT1A [6]): 10.2 µM; Ki (D2L [7]): 1.19 µM; CYP2D6 activity (induction) (CYP2D6; at 10 and 25 µM): ~ 148 % of the control activity
Cc1ccc(C(C)C)c(OCc2nc(N)nc(N3CCN(C)CC3)n2)c1 [Compound 4, 4-((2-isopropyl-5-methylphenoxy)methyl)-6-(4-methylpiperazin-1-yl)-1,3,5-triazin-2-amine] | 0.011 | ~ 135% | 6.30 | 1.65 | 0.43 | 12.3 ± 1.98 | anxiolytic-like activity was shown | lowest toxic dose vs 5-HT6R Ki ([4]; 10 μM vs Ki = 11 nM): ~ 1000 fold; HEK-293 cells viability ([4]; 72 h, at 10 and 100 µM, p < 0.001): statistically significant decrease in cells viability; lowest toxic dose ([4]; cytotoxicity, 72 h): 10 µM; Ki (5-HT1A [9]): 12.5 µM; HepG2 viability (hepatotoxic effect) (hepatoma HepG2 cell line [10]): hepatotoxic effect; influence on CYP3A4 activity (CYP3A4): slight induction effect; Ki (5-HT7 [11]): 12 µM; Ki (D2L [12]): 1.09 µM; CYP2D6 activity (inhibition) (CYP2D6): ~ 75 % of the control activity; increase of the number of licks ([3]; 0.3 mg/kg i.p., p < 0.0001): about 76%
CCN(C)C(=O)Oc1cccc([C@H](C)N(C)C)c1 [rivastigmine] | – | – | – | – | – | – | – | effect on scopolamine induced learning deficits in NORT [13]: similar, but lower pro-cognitive effects
